{
  "source": "paper PMC8009417",
  "about": "“Selective killing of homologous recombination-deficient cancer cell lines by inhibitors of the RPA:RAD52 protein-protein interaction” (PLoS ONE, 2021)",
  "key": {"RAD52 protein level": {"tested_on": "RAD52 protein level", "assay": "Simple Western of RAD52 protein level after treatment", "format": "cell-based, human", "settings": "72 h at doses near EC50", "experimental": "Fig 6 The effect of mitoxantrone treatment on RAD52 levels and DNA damage. […] Data and ANOVA statistical analyses are described in the material and methods section. Significance statistics are shown with single, double, or triple asterisks representing P<0.05, P<0.005, or P<0.0005, respectively.\nFor western analysis, each cell line was grown and treated as described above. Protein levels were measured in lysates by size separation with a ProteinSimple PeggySue instrument following the manufacturer’s recommendations. Lysates were prepared using the NanoPro Cell Lysis Kit with Bicine/CHAPS (ProteinSimple CBS403) at 0.75 mg/mL concentration when mixed with master mix (containing SDS, DTT and fluorescent molecular weight markers; ProteinSimple PS-FL01-8) and heated for 5 min at 95°C. Electrophoretic nanocapillary size separation of proteins was performed using default settings. After separation, UV light cross-linked proteins to the capillary wall. Capillaries were then washed and incubated with primary antibodies, washed, and incubated with anti-rabbit secondary antibody conjugated with HRP (ProteinSimple DM-001). Finally, luminol and peroxide were applied to generate chemoluminescence which was imaged by a CCD camera. Primary antibody concentrations were optimized and were diluted as follows: Abcam anti-RAD52 antibody (ab18263, diluted 1:25), R&D Systems Human Phospho-histone H2AX (S139) antibody (AF2288, diluted 1:100), and Cell Signalling Technology Pan-Actin antibody (#4968, diluted 1:2500).\nThe Simple western data were processed and analyzed with ProteinSimple Compass software. Peak areas were calculated using dropped lines. Each lysate was analyzed for RAD52 and γH2AX levels three times and for Actin two times (see S2 Fig). Replicate peak areas for RAD52 and γH2AX were averaged, divided by the average Actin peak area of that sample, multiplied by 100 and graphed using SigmaPlot 7.0."}, "[1]": {"tested_on": "single-strand annealing (SSA) in U2OS-SA cells", "assay": "Cell-based DSB repair assay, SSA (SA-GFP reporter, FACS)", "settings": "4 nM, 2 h pre-treatment, three days", "experimental": "(A) The effect of mitoxantrone (MX) on SSA and HR were studied with cell-based DSB repair assays. U2OS-SA and U2OS-DR cells were pre-treated with mitoxantrone for two hours before transfection of the SceI-expression plasmid. Then cells were grown in the presence of mitoxantrone for three days. DSB repair activities were determined by (B) FACS analysis. […] U2OS-SA cells were pre-treated with indicated concentrations of mitoxantrone for two hours, before I-SceI-expression vector transfection. After 72 hours incubation, the cells were harvested, and lysates were prepared. Lysate from each treatment was analyzed by 12% SDS-PAGE and the expression levels of I-SceI was determined by the western blot using anti-HA antibody. The p70 of RPA was used as a loading control. Ratios of I-SceI to p70 was obtained with ImageJ and are shown at the bottom of the image. C: control experiment without the addition of mitoxantrone. (D, E) Analysis of DSB repair activiies by western blots. […] At least three independent experiments were performed. Error bars represent standard deviations."}, "[2]": {"tested_on": "UWB1.289 cells corrected with wild-type BRCA1 gene (BRCA1+)", "assay": "Cell viability assay (PrestoBlue, 72 h), UWB1.289+BRCA1", "format": "cell-based", "settings": "Homo sapiens, UWB1289, estimated from the graphs", "source_text": "BRCA1-deficient UWB1.289 cells corrected with wild-type BRCA1 gene (BRCA1+; closed triangle) and parental BRCA1-deficient UWB1.289 (BRCA1-; closed circle). Two PARPi-resistant cell lines derived from UWB1.289, UWB1.289.SYr12 (closed diamond) and UWB1.SYr13 (X), were also examined.\nUWB1.289 (a gift from Dr. Lee Zou, Harvard Medical School, Boston, MA) were derived from a serous ovarian carcinoma with a germline BRCA1 mutation and a deletion of the wild-type allele. […] Two PARP-resistant cell lines, SYr12 and SYr13, were derived from the UWB1.289. The Mammary Epithelial growth media, along with SupplementMix solution for UWB1 cell lines, were obtained from PromoCell GmbH and mixed as described.\nCells were seeded 5 x 10^3 cells per well in 96-well plates in a 90 μL volume per well one day before treatment. Cells in 96-well plates were incubated with increasing concentrations of the compound or vehicle control (1% DMSO) for 72 hours. Each treatment plate contained nine concentrations of a compound in sextuplicate. Growth inhibition was determined using PrestoBlue reagent (Life Technologies, #A13261). Fluorescent measurements were taken using a Spectramax M5 plate reader (MDS). To assess cells’ replication in the absence of compounds as a control, six wells on each plate were treated with vehicle to be read in triplicate at the initial treatment day (T0) and at 72-hour read (T100)."}},
  "data": [
    {"smiles": "O=C1c2c(O)ccc(O)c2C(=O)c2c(NCCNCCO)ccc(NCCNCCO)c21", "note": "[Mitoxantrone, mitoxantrone]", "values": [
      {"measurement": "Change of RAD52 level with treatment", "setting": "RAD52 protein level; HCC1937 cells", "result": "the level of RAD52 increased"},
      {"measurement": "Change of RAD52 level with treatment", "setting": "RAD52 protein level; PE01 cells", "result": "dramatic reduction in RAD52 protein"},
      {"measurement": "Change of RAD52 level with treatment", "setting": "RAD52 protein level; UWB1 cells", "result": "the level of RAD52 decreased"},
      {"measurement": "inhibition at 0.004 µM", "setting": "[1]", "result": 72, "unit": "%"},
      {"measurement": "EC50", "setting": "[2]", "result": 3000, "unit": "nM"}
    ]}
  ]
}
